# Laboratory results as given in PubChem BioAssay (NCI).
#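 All cell lines were grown in 96-well plates and treated with compound for 48 hours. TGI denotes the concentration required for complete inhibition of growth.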
# Legend:
# Experiment in all cases: DTP human tumour cell line panel, 48 h
# PC-3 prostate = tested on: PC-3 prostate
# U251 CNS = tested on: U251 CNS
# HOP-92 NSCLC = tested on: HOP-92 NSCLC
# UACC-62 melanoma = tested on: UACC-62 melanoma
# BT-549 breast = tested on: BT-549 breast
# DU-145 prostate = tested on: DU-145 prostate
# HT29 colon = tested on: HT29 colon
# NCI-H23 lung = tested on: NCI-H23 lung
# T-47D breast = tested on: T-47D breast
# HS 578T breast = tested on: HS 578T breast
# CCRF-CEM leukemia = tested on: CCRF-CEM leukemia
# MOLT-4 leukemia = tested on: MOLT-4 leukemia
# RXF 393 renal = tested on: RXF 393 renal
# SF-295 CNS = tested on: SF-295 CNS
# SR leukemia = tested on: SR leukemia
# HL-60(TB) leukemia = tested on: HL-60(TB) leukemia
# UACC-257 melanoma = tested on: UACC-257 melanoma
# MDA-MB-231 breast = tested on: MDA-MB-231 breast
# MDA-N = tested on: MDA-N
Structure (SMILES),TGI (PC-3 prostate),TGI (U251 CNS),TGI (HOP-92 NSCLC),TGI (UACC-62 melanoma),TGI (BT-549 breast),TGI (DU-145 prostate),TGI (HT29 colon),TGI (NCI-H23 lung),TGI (T-47D breast),TGI (HS 578T breast),TGI (CCRF-CEM leukemia),TGI (MOLT-4 leukemia),TGI (RXF 393 renal),TGI (SF-295 CNS),TGI (SR leukemia),TGI (HL-60(TB) leukemia),TGI (UACC-257 melanoma),TGI (MDA-MB-231 breast),TGI (MDA-N)
C/C1=C/C[C@@H](/C(C)=C/c2csc(C)n2)OC(=O)C[C@H](O)C(C)(C)C(=O)[C@H](C)[C@@H](O)[C@@H](C)CCC1,0.193 µM,0.169 µM,0.302 µM,0.247 µM,0.198 µM,< 0.0001 µM,0.335 µM,0.169 µM,0.361 µM,< 0.0001 µM,0.894 µM,0.394 µM,< 0.0001 µM,< 0.0001 µM,,,,,
O=C(CCN1CCC(CCO)CC1)Nc1ccc2c(c1)C(=O)c1ccc(NC(=O)CCN3CCC(CCO)CC3)cc1C2=O,,23.8 µM,> 100 µM,38.4 µM,,,> 100 µM,> 100 µM,,,42.5 µM,24.5 µM,> 100 µM,> 100 µM,55.7 µM,> 100 µM,> 100 µM,,
CCCCCCCc1cscc1-c1cscc1Br,> 100 µM,> 100 µM,,> 100 µM,> 100 µM,> 100 µM,,> 100 µM,88.3 µM,,40.3 µM,42.3 µM,67 µM,79.8 µM,41.3 µM,,> 100 µM,> 100 µM,> 100 µM
c1ccc2cc(CNCCCCNCCCNCc3ccc4ccccc4c3)ccc2c1,3.3 µM,1.25 µM,3.05 µM,3.52 µM,3.37 µM,2.53 µM,0.538 µM,3.43 µM,,1.26 µM,> 100 µM,,3.16 µM,2.96 µM,,,3.55 µM,3.95 µM,2.54 µM
CC(=O)Oc1ccc(Nn2c3ccccc3c3ccccc32)c(C)c1,,> 100 µM,64 µM,> 100 µM,,,,> 100 µM,,,> 100 µM,77.7 µM,80.4 µM,73.7 µM,65.5 µM,63.2 µM,> 100 µM,,
O=c1oc2ccc3ccccc3c2cc1-c1cn2c(n1)sc1ccccc12,> 100 µM,> 100 µM,> 100 µM,> 100 µM,> 100 µM,> 100 µM,> 100 µM,> 100 µM,,> 100 µM,> 100 µM,14 µM,> 100 µM,> 100 µM,,> 100 µM,> 100 µM,> 100 µM,> 100 µM
Cc1ccc(C(=O)N2CCCCC2)cc1N=NN(C)C,,,,> 100 µM,,,> 100 µM,> 100 µM,,,> 100 µM,> 100 µM,,> 100 µM,> 100 µM,> 100 µM,> 100 µM,,
CN(C)CCN(C)C(=O)C1CCCN1C(=O)OCc1ccccc1 (stereo not given),,> 100 µM,> 100 µM,> 100 µM,,,> 100 µM,> 100 µM,,,48.7 µM,> 100 µM,> 100 µM,> 100 µM,> 100 µM,> 100 µM,> 100 µM,,
O=C(Cc1ccccc1)N/N=C(/c1nc2ccc([N+](=O)[O-])cc2[nH]c1=O)C(O)c1ccc(C(O)/C(=N/NC(=O)Cc2ccccc2)c2nc3ccc([N+](=O)[O-])cc3[nH]c2=O)cc1 (stereo not given),,,> 100 µM,> 100 µM,,,> 100 µM,> 100 µM,,,> 100 µM,,> 100 µM,> 100 µM,,> 100 µM,> 100 µM,,
O=C1C=CC(=O)c2cc(Sc3ccccc3)c(=O)c(Sc3ccccc3)cc21,,> 100 µM,50.5 µM,81.6 µM,,,> 100 µM,> 100 µM,,,60.9 µM,> 100 µM,51.2 µM,> 100 µM,> 100 µM,27.7 µM,> 100 µM,,
CC(C)COP(C)(=O)C(N)(C(F)(F)F)C(F)(F)F (stereo not given),> 100 µM,> 100 µM,> 100 µM,> 100 µM,,> 100 µM,> 100 µM,> 100 µM,> 100 µM,> 100 µM,> 100 µM,> 100 µM,,> 100 µM,> 100 µM,> 100 µM,> 100 µM,> 100 µM,> 100 µM
CCCCOC(=O)NC(Nc1ccc(S(=O)(=O)Nc2ncccn2)cc1)(C(F)(F)F)C(F)(F)F,> 100 µM,,> 100 µM,> 100 µM,,> 100 µM,> 100 µM,> 100 µM,> 100 µM,> 100 µM,> 100 µM,> 100 µM,> 100 µM,> 100 µM,> 100 µM,> 100 µM,,> 100 µM,> 100 µM
O=[N+]([O-])c1ccc(CN=C2NNS(=O)(=O)c3ccccc32)cc1,,> 100 µM,> 100 µM,> 100 µM,,,> 100 µM,,,,> 100 µM,> 100 µM,> 100 µM,> 100 µM,99.7 µM,> 100 µM,> 100 µM,,
O=C1Oc2cc3c(c4cccc1c24)OCN(c1ccccc1)C3,,> 100 µM,> 100 µM,> 100 µM,,,> 100 µM,> 100 µM,,,86.2 µM,> 100 µM,> 100 µM,> 100 µM,> 100 µM,> 100 µM,> 100 µM,,
O=C(Cc1ccccc1)NN1C(=O)C(Cl)C1c1cccc([N+](=O)[O-])c1 (stereo not given),,> 100 µM,30.5 µM,> 100 µM,,,> 20 µM,> 92.2 µM,,,5.97 µM,45 µM,93 µM,> 100 µM,22.1 µM,29.5 µM,> 100 µM,,
CCC(c1ccc(OC)cc1)C1NC(=S)NC1=O (stereo not given),> 50 µM,> 50 µM,> 50 µM,,,> 50 µM,> 50 µM,> 50 µM,> 50 µM,> 50 µM,> 50 µM,> 50 µM,> 50 µM,> 50 µM,,47.3 µM,> 50 µM,> 50 µM,> 50 µM
